Data as given in US11986540B2, “Compositions including pafolacianine for the identification of malignant lesions” (ON TARGET LABORATORIES, LLC., priority 2022, dated 2024).
Where two headings read alike, the source gives them in different places.

Key:
[1] = test system: FR-positive KB cell tumor xenografts; assay: Whole body imaging and tissue distribution, FR-positive KB tumor xenografts; type: in vivo, mice
Experimental: Whole body imaging and tissue distribution of pafolacianine and OTL0039 was performed in female nu/nu mice bearing FR-positive KB cell tumor xenografts. […] This observation was consistent with the lower binding affinity of the D-isomer for FR compared with the L-isomer. Tumor fluorescence was brighter in mice receiving pafolacianine compared with other folate-conjugated near infrared dyes such as LS288, IR800 and ZW800.
(§1) The optimal dose range for pafolacianine with respect to tumor-to-background ratio in FR-positive tumor-bearing mice was 1 to 30 nmol/mouse, with lower fluorescence intensity observed in tumors at a lower dose (0.3 nmol) and higher fluorescence intensity observed in other tissues at doses above 30 nmol. In a second experiment, pafolacianine whole body imaging and tissue distribution was examined again; however, this experiment was performed in female nu/nu mice bearing FR-negative A549 cell tumor xenografts.

[2] = test system: FR-negative A549 cell tumor xenografts; assay: Whole body imaging and tissue distribution, FR-negative A549 tumor xenografts; type: in vivo, mice
Experimental: as §1

[3] = Single IV dose toxicokinetics in rats; type: in vivo; settings: Study Day 0; for AUC(0-t) / C0: rat, in vivo
Experimental: Following a single IV administration of pafolacianine to male and female rats, systemic exposure (AUClast) to pafolacianine appeared similar between males and females at the 46.3 mg/kg dose levels (Table 2). There was a slight trend for higher AUClast values in females versus males at the two lower dose levels; however, due to sparse sampling of blood, the significance of this slight trend could not be evaluated. Values for AUClast were calculated, but the time associated with the last measurable concentration was variable (Tlast; 5 min to 24 hr), which confounded the ability to assess dose proportionality. Terminal data were generally sparse and/or the terminal phase was not sufficiently defined (FIG. 4). Thus, parameters dependent on accurate determination of the terminal phase (AUCinf, T1/2, CL, Vz) were not reported.

[4] = Repeat once-weekly IV dose toxicokinetics in dogs; type: in vivo; settings: for half-life / AUC(0-inf) / AUC(0-t) / C0 / clearance / Vd: dog, in vivo; for Vd: read-out: Vss
Experimental: Overall, drug concentrations increased with ascending dose, noting that the mean profiles at the two highest dose levels were overlapping. Systemic exposure (AUClast) to pafolacianine was approximately dose-proportional over the range of doses administered (0.9 to 13.9 mg/kg) and within the observed variability (Table 5). […] On both Day 0 and Day 13, CL was slow (relative to hepatic blood flow) and Vss was moderate. Mean T1/2 ranged from approximately 13 to 18 hours.

[5] = female rats, 3.1 mg/kg single IV
[6] = female rats, 30.8 mg/kg single IV
[7] = female rats, 46.3 mg/kg single IV
[8] = male rats, 30.8 mg/kg single IV
[9] = male rats, 46.3 mg/kg single IV
[10] = female, iv, 0.9 mg/kg, dogs F, 0.9 mg/kg once-weekly IV, Day 0
[11] = female, iv, 0.9 mg/kg, dogs F, 0.9 mg/kg once-weekly IV, Day 13
[12] = female, iv, 9.3 mg/kg, dogs F, 9.3 mg/kg once-weekly IV, Day 0
[13] = female, iv, 9.3 mg/kg, dogs F, 9.3 mg/kg once-weekly IV, Day 13
[14] = female, iv, 13.9 mg/kg, dogs F, 13.9 mg/kg once-weekly IV, Day 0
[15] = female, iv, 13.9 mg/kg, dogs F, 13.9 mg/kg once-weekly IV, Day 13
[16] = male, iv, 0.9 mg/kg, dogs M, 0.9 mg/kg once-weekly IV, Day 0
[17] = male, iv, 0.9 mg/kg, dogs M, 0.9 mg/kg once-weekly IV, Day 13
[18] = male, iv, 9.3 mg/kg, dogs M, 9.3 mg/kg once-weekly IV, Day 0
[19] = male, iv, 9.3 mg/kg, dogs M, 9.3 mg/kg once-weekly IV, Day 13
[20] = male, iv, 13.9 mg/kg, dogs M, 13.9 mg/kg once-weekly IV, Day 0
[21] = male, iv, 13.9 mg/kg, dogs M, 13.9 mg/kg once-weekly IV, Day 13

## CC1(C)C(=CC=C2CCCC(C=CC3=[N+](CCCCS(=O)(=O)[O-])c4ccc(S(=O)(=O)O)cc4C3(C)C)=C2Oc2ccc(CC(NC(=O)c3ccc(NCc4cnc5nc(N)[nH]c(=O)c5n4)cc3)C(=O)O)cc2)N(CCCCS(=O)(=O)O)c2ccc(S(=O)(=O)O)cc21 (stereo not drawn) [pafolacianine]
[1]; 2.5 hours after IV 10 nmol
  fluorescence in all other normal tissues: little or no fluorescence signal
  fluorescence in kidneys: fluorescence signal also observed in the kidneys
  fluorescence in tumors: fluorescence primarily in the tumors
  tumor-to-normal tissue fluorescence ratios: excellent
[1]; mouse, in vivo
  tumor fluorescence compared with other folate-conjugated near infrared dyes (LS288, IR800, ZW800): brighter
[2]
  fluorescence in FR-negative tumors: no fluorescence observed
  fluorescence in kidneys: fluorescence was primarily noted in kidneys
[3]; [5]
  DN AUClast: 0.816 (μg · h/mL)/(mg/kg)
  AUC(0-t): 2530 ng·h/mL
  C0: 16.2 µg/mL
[3]; [6]
  DN AUClast: 5.39 (μg · h/mL)/(mg/kg)
  AUC(0-t): 166000 ng·h/mL
  C0: 178 µg/mL
[3]; [7]
  DN AUClast: 5.51 (μg · h/mL)/(mg/kg)
  AUC(0-t): 255000 ng·h/mL
  C0: 231 µg/mL
[3]; male rats, 3.1 mg/kg single IV
  DN AUClast: 0.184 (μg · h/mL)/(mg/kg)
  AUC(0-t): 570 ng·h/mL
  C0: 6.87 µg/mL
[3]; [8]
  DN AUClast: 3.86 (μg · h/mL)/(mg/kg)
  AUC(0-t): 119000 ng·h/mL
  C0: 65.7 µg/mL
[3]; [9]
  DN AUClast: 6.18 (μg · h/mL)/(mg/kg)
  AUC(0-t): 286000 ng·h/mL
  C0: 174 µg/mL
[4]; both sexes, intravenous, dogs, all doses and days, read-out: Mean T1/2 range
  half-life: 13 to 18 h
[4]; dogs F, 0.9 mg/kg once-weekly IV, Day 0
  DN AUClast: 9.34 (μg · h/ml) (mg/kg)
[4]; dogs F, 0.9 mg/kg once-weekly IV, Day 13
  DN AUClast: 7.36 (μg · h/ml) (mg/kg)
[4]; dogs F, 9.3 mg/kg once-weekly IV, Day 0
  DN AUClast: 5.46 (μg · h/ml) (mg/kg)
[4]; dogs F, 9.3 mg/kg once-weekly IV, Day 13
  DN AUClast: 6.21 (μg · h/ml) (mg/kg)
[4]; dogs F, 13.9 mg/kg once-weekly IV, Day 0
  DN AUClast: 5.74 (μg · h/ml) (mg/kg)
[4]; dogs F, 13.9 mg/kg once-weekly IV, Day 13
  DN AUClast: 6.81 (μg · h/ml) (mg/kg)
[4]; dogs M, 0.9 mg/kg once-weekly IV, Day 0
  DN AUClast: 5.27 (μg · h/ml) (mg/kg)
[4]; dogs M, 0.9 mg/kg once-weekly IV, Day 13
  DN AUClast: 5.64 (μg · h/ml) (mg/kg)
[4]; dogs M, 9.3 mg/kg once-weekly IV, Day 0
  DN AUClast: 6.24 (μg · h/ml) (mg/kg)
[4]; dogs M, 9.3 mg/kg once-weekly IV, Day 13
  DN AUClast: 7.03 (μg · h/ml) (mg/kg)
[4]; dogs M, 13.9 mg/kg once-weekly IV, Day 0
  DN AUClast: 5.65 (μg · h/ml) (mg/kg)
[4]; dogs M, 13.9 mg/kg once-weekly IV, Day 13
  DN AUClast: 6.18 (μg · h/ml) (mg/kg)
[4]; dogs, once-weekly dosing for 3 weeks
  accumulation or changes in TK after repeated dosing: no accumulation or changes in TK were evident
[4]; [10]
  AUC(0-inf): 10500 ng·h/mL
  AUC(0-t): 8400 ng·h/mL
  C0: 4.75 µg/mL
  clearance: 1.59 mL/min/kg
  Vd: 1.47 L/kg
[4]; female, iv, 0.9 mg/kg, dogs F, 0.9 mg/kg once-weekly IV, Day 0, read-out: T1/2 (converted)
  half-life: 15 h
[4]; [11]
  AUC(0-inf): 8420 ng·h/mL
  AUC(0-t): 6630 ng·h/mL
  C0: 8.92 µg/mL
  clearance: 1.8 mL/min/kg
  Vd: 1.49 L/kg
[4]; female, iv, 0.9 mg/kg, dogs F, 0.9 mg/kg once-weekly IV, Day 13, read-out: T1/2 (converted)
  half-life: 13.1 h
[4]; [12]
  AUC(0-inf): 69300 ng·h/mL
  AUC(0-t): 50800 ng·h/mL
  C0: 54.9 µg/mL
  clearance: 2.35 mL/min/kg
  Vd: 2.38 L/kg
[4]; female, iv, 9.3 mg/kg, dogs F, 9.3 mg/kg once-weekly IV, Day 0, read-out: T1/2 (converted)
  half-life: 15.2 h
[4]; [13]
  AUC(0-inf): 76600 ng·h/mL
  AUC(0-t): 57700 ng·h/mL
  C0: 67.8 µg/mL
  clearance: 2.11 mL/min/kg
  Vd: 1.94 L/kg
[4]; female, iv, 9.3 mg/kg, dogs F, 9.3 mg/kg once-weekly IV, Day 13, read-out: T1/2 (converted)
  half-life: 14.3 h
[4]; [14]
  AUC(0-inf): 109000 ng·h/mL
  AUC(0-t): 79800 ng·h/mL
  C0: 79.6 µg/mL
  clearance: 2.15 mL/min/kg
  Vd: 2.2 L/kg
[4]; female, iv, 13.9 mg/kg, dogs F, 13.9 mg/kg once-weekly IV, Day 0, read-out: T1/2 (converted)
  half-life: 15.3 h
[4]; [15]
  AUC(0-inf): 129000 ng·h/mL
  AUC(0-t): 94700 ng·h/mL
  C0: 104 µg/mL
  clearance: 1.81 mL/min/kg
  Vd: 1.83 L/kg
[4]; female, iv, 13.9 mg/kg, dogs F, 13.9 mg/kg once-weekly IV, Day 13, read-out: T1/2 (converted)
  half-life: 15.3 h
[4]; [16]
  AUC(0-inf): 6400 ng·h/mL
  AUC(0-t): 4740 ng·h/mL
  C0: 4.66 µg/mL
  clearance: 2.39 mL/min/kg
  Vd: 2.31 L/kg
[4]; male, iv, 0.9 mg/kg, dogs M, 0.9 mg/kg once-weekly IV, Day 0, read-out: T1/2 (converted)
  half-life: 14.8 h
[4]; [17]
  AUC(0-inf): 7360 ng·h/mL
  AUC(0-t): 5070 ng·h/mL
  C0: 5.73 µg/mL
  clearance: 2.09 mL/min/kg
  Vd: 2.42 L/kg
[4]; male, iv, 0.9 mg/kg, dogs M, 0.9 mg/kg once-weekly IV, Day 13, read-out: T1/2 (converted)
  half-life: 17.6 h
[4]; [18]
  AUC(0-inf): 81200 ng·h/mL
  AUC(0-t): 58000 ng·h/mL
  C0: 62.1 µg/mL
  clearance: 1.92 mL/min/kg
  Vd: 2.1 L/kg
[4]; male, iv, 9.3 mg/kg, dogs M, 9.3 mg/kg once-weekly IV, Day 0, read-out: T1/2 (converted)
  half-life: 16.4 h
[4]; [19]
  AUC(0-inf): 85100 ng·h/mL
  AUC(0-t): 65400 ng·h/mL
  C0: 72.6 µg/mL
  clearance: 1.84 mL/min/kg
  Vd: 1.6 L/kg
[4]; male, iv, 9.3 mg/kg, dogs M, 9.3 mg/kg once-weekly IV, Day 13, read-out: T1/2 (converted)
  half-life: 13.3 h
[4]; [20]
  AUC(0-inf): 110000 ng·h/mL
  AUC(0-t): 78500 ng·h/mL
  C0: 81.8 µg/mL
  clearance: 2.13 mL/min/kg
  Vd: 2.35 L/kg
[4]; male, iv, 13.9 mg/kg, dogs M, 13.9 mg/kg once-weekly IV, Day 0, read-out: T1/2 (converted)
  half-life: 16.2 h
[4]; [21]
  AUC(0-inf): 117000 ng·h/mL
  AUC(0-t): 85900 ng·h/mL
  C0: 108 µg/mL
  clearance: 2 mL/min/kg
  Vd: 2.02 L/kg
[4]; male, iv, 13.9 mg/kg, dogs M, 13.9 mg/kg once-weekly IV, Day 13, read-out: T1/2 (converted)
  half-life: 15 h
